Results taken from patent publication US10683290B2, “Tricyclic compounds as anticancer agents” (BRISTOL-MYERS SQUIBB COMPANY, priority 2015, dated 2020).

target: BRD4 (Homo sapiens, UniProt O60885); experiment: biochemical; type: binding; conditions: FRET BRD4 IC50 (nM), one of the FRET assays described

SMILES | IC50 [nM]
Cc1nnn(C)c1-c1ccc2c3ncc(C(C)(C)O)cc3n([C@H](c3ccccc3F)C3CCOCC3)c2c1 [Example 9, 2-[7-(dimethyl-1H-1,2,3-triazol-5-yl)-5-[(S)-(2-fluorophenyl)(oxan-4-yl)methyl]-5H-pyrido[3,2-b]indol-3-yl]propan-2-ol] | < 5

same assay, conditions: one of the FRET assays described; read-out: FRET BRD4 IC50

SMILES | IC50 [nM]
[2H]C([2H])([2H])c1nnn(C)c1-c1cc2c(cc1F)c1ncc(C(C)(C)O)cc1n2C(c1ncccn1)C1CCOCC1 (single isomer, unassigned) [Example 47, 2-{8-fluoro-7-[4-(^2H3)methyl-1-methyl-1H-1,2,3-triazol-5-yl]-5-[oxan-4-yl(pyrimidin-2-yl)methyl]-5H-pyrido[3,2-b]indol-3-yl}propan-2-ol] | < 5
[2H]C([2H])([2H])c1nnn(C)c1-c1cc2c(cc1F)c1ncc(C(C)(C)O)cc1n2C(CCC)c1ccccn1 (single isomer, unassigned) [Example 49, 2-{8-fluoro-7-[4-(^2H3)methyl-1-methyl-1H-1,2,3-triazol-5-yl]-5-[1-(pyridin-2-yl)butyl]-5H-pyrido[3,2-b]indol-3-yl}propan-2-ol] | < 5
[2H]C([2H])([2H])c1nnn(C)c1-c1ccc2c3ncc(S(C)(=O)=O)cc3n([C@H](c3ccccc3)C3CCOCC3)c2c1 [Example 27, 5-{3-Methanesulfonyl-5-[(S)-oxan-4-yl(phenyl)methyl]-5H-pyrido[3,2-b]indol-7-yl}-4-(^2H3)methyl-1-methyl-1H-1,2,3-triazole] | < 5
[2H]C([2H])([2H])c1nnn(C)c1-c1cc2c(cc1F)c1ncc(C(C)(C)O)cc1n2C(c1ccccc1)C1(C)COC1 (single isomer, unassigned) [Example 65, 2-{8-fluoro-7-[4-(^2H3)methyl-1-methyl-1H-1,2,3-triazol-5-yl]-5-[(3-methyloxetan-3-yl)(phenyl)methyl]-5H-pyrido[3,2-b]indol-3-yl}propan-2-ol] | < 1500
Cc1nnn(C)c1-c1ccc2c3ncc(C(=O)O)cc3n([C@H](c3ccccc3F)C3CCOCC3)c2c1 [Example 29, 7-(Dimethyl-1H-1,2,3-triazol-5-yl)-5-[(S)-(2-fluorophenyl)(oxan-4-yl)methyl]-5H-pyrido[3,2-b]indole-3-carboxylic acid] | < 5
[2H]C([2H])([2H])c1nnn(C)c1-c1cc2c(cc1F)c1ncc(C(C)(C)O)cc1n2C(c1ccccn1)C1CCOCC1 (single isomer, unassigned) [Example 37, 2-{8-fluoro-7-[4-(^2H3)methyl-1-methyl-1H-1,2,3-triazol-5-yl}-5-[oxan-4-yl(pyridin-2-yl)methyl]-5H-pyrido[3,2-b]indol-3-yl]propan-2-ol] | < 5
[2H]C([2H])([2H])c1nnn(C)c1-c1cc2c(cc1Cl)c1ncc(C(C)(C)O)cc1n2C(c1cc(C)on1)C1CCOCC1 (single isomer, unassigned) [Example 78, 2-{8-chloro-5-[(5-methyl-1,2-oxazol-3-yl)(oxan-4-yl)methyl]-7-[4-(^2H3)methyl-1-methyl-1H-1,2,3-triazol-5-yl]-5H-pyrido[3,2-b]indol-3-yl}propan-2-ol] | < 1500
[2H]C([2H])([2H])c1nnn(C)c1-c1cc2c(cc1Cl)c1ncc(C(C)(C)O)cc1n2[C@H](c1ccccc1)C1CCOCC1 [Example 77, 2-{8-chloro-7-[4-(^2H3)methyl-1-methyl-1H-1,2,3-triazol-5-yl]-5-[(S)-oxan-4-yl(phenyl)methyl]-5H-pyrido[3,2-b]indol-3-yl}propan-2-ol] | < 1500
[2H]C([2H])([2H])c1nnn(C)c1-c1cc2c(cc1F)c1ncc(S(C)(=O)=O)cc1n2[C@H](c1ccccc1F)C1CCOCC1 [Example 28, 5-{8-Fluoro-5-[(S)-(2-fluorophenyl)(oxan-4-yl)methyl]-3-methanesulfonyl-5H-pyrido[3,2-b]indol-7-yl}-4-(^2H3)methyl-1-methyl-1H-1,2,3-triazole] | < 1
Cc1nnn(C)c1-c1cc(Cl)c2c3ncc(C(C)(C)O)cc3n(C(CCC(F)(F)F)CCC(F)(F)F)c2c1 [Example 12, 2-[9-Chloro-7-(dimethyl-1H-1,2,3-triazol-5-yl)-5-(1,1,1,7,7,7-hexafluoroheptan-4-yl)-5H-pyrido[3,2-b]indol-3-yl]propan-2-ol] | < 5
[2H]C([2H])([2H])c1nnn(C)c1-c1cc2c(cc1F)c1ncc(C(C)(C)O)cc1n2[C@H](c1ccccc1F)C1CCOCC1 [Example 22, 2-{8-Fluoro-5-[(S)-(2-fluorophenyl)(oxan-4-yl)methyl]-7-[4-(^2H3)methyl-1-methyl-1H-1,2,3-triazol-5-yl]-5H-pyrido[3,2-b]indol-3-yl}propan-2-ol] | < 1
[2H]C([2H])([2H])c1nnn(C)c1-c1cc2c(cc1F)c1ncc(C(C)(C)O)cc1n2C(c1ccccc1)C1COC1 (single isomer, unassigned) [Example 68, 2-{8-fluoro-7-[4-(^2H3)methyl-1-methyl-1H-1,2,3-triazol-5-yl]-5-[oxetan-3-yl(phenyl)methyl]-5H-pyrido[3,2-b]indol-3-yl}propan-2-ol] | < 1500
Cc1nnn(C)c1-c1cc(F)c2c3ncc(C(C)(C)O)cc3n(C(CCC(F)(F)F)CCC(F)(F)F)c2c1 [Example 10, 2-[7-(Dimethyl-1H-1,2,3-triazol-5-yl)-9-fluoro-5-(1,1,1,7,7,7-hexafluoroheptan-4-yl)-5H-pyrido[3,2-b]indol-3-yl]propan-2-ol] | < 5
[2H]C([2H])([2H])c1nnn(C)c1-c1cc2c(cc1F)c1ncc(C(C)(C)O)cc1n2C(c1ccccc1)C1(C)COC1 (single isomer, unassigned) [Example 64, 2-{8-fluoro-7-[4-(^2H3)methyl-1-methyl-1H-1,2,3-triazol-5-yl]-5-[(3-methyloxetan-3-yl)(phenyl)methyl]-5H-pyrido[3,2-b]indol-3-yl}propan-2-ol] | < 5
[2H]C([2H])([2H])c1nnn(C)c1-c1cc2c(cc1F)c1ncc(C(C)(C)O)cc1n2C(c1ncccc1OC)C1CCOCC1 (single isomer, unassigned) [Example 40, 2-{8-fluoro-5-[(3-methoxypyridin-2-yl)(oxan-4-yl)methyl}-7-[4-(^2H3)methyl-1-methyl-1H-1,2,3-triazol-5-yl]-5H-pyrido[3,2-b]indol-3-yl]propan-2-ol] | < 1500
[2H]C([2H])([2H])c1nnn(C)c1-c1ccc2c3ncc(C(C)(C)O)cc3n(C(c3ncccc3F)C3CCOCC3)c2c1F (single isomer, unassigned) [Example 84, 2-{6-Fluoro-5-[(3-fluoropyridin-2-yl)(oxan-4-yl)methyl]-7-[4-(^2H3)methyl-1-methyl-1H-1,2,3-triazol-5-yl]-5H-pyrido[3,2-b]indol-3-yl}propan-2-ol] | < 5
[2H]C([2H])([2H])c1nnn(C)c1-c1cc2c(cc1F)c1ncc(C(C)(C)O)cc1n2C(CCOC)c1ccccc1 (single isomer, unassigned) [Example 63, 2-[8-fluoro-5-(3-methoxy-1-phenylpropyl)-7-[4-(^2H3)methyl-1-methyl-1H-1,2,3-triazol-5-yl]-5H-pyrido[3,2-b]indol-3-yl]propan-2-ol] | < 5
CCCC(CCC)n1c2cc(-c3c(C)nnn3C)ccc2c2ncc(C(C)(C)O)cc21 [Example 5, 2-[7-(dimethyl-1H-1,2,3-triazol-5-yl)-5-(heptan-4-yl)-5H-pyrido[3,2-b]indol-3-yl]propan-2-ol] | < 5
Cc1nnn(C)c1-c1ccc2c3ncc(C(C)(C)O)cc3n([C@H](c3ccc(F)cc3)C3CCOCC3)c2c1 [Example 3, 2-[7-(Dimethyl-1H-1,2,3-triazol-5-yl)-5-[(S)-(4-fluorophenyl)(oxan-4-yl)methyl]-5H-pyrido[3,2-b]indol-3-yl]propan-2-ol] | < 1
[2H]C([2H])([2H])c1nnn(C)c1-c1cc2c(cc1F)c1ncc(C(C)(C)O)cc1n2C(c1ccc(F)cn1)C1CCOCC1 (single isomer, unassigned) [Example 44, 2-{8-fluoro-5-[(5-fluoropyridin-2-yl)(oxan-4-yl)methyl}-7-[4-(^2H3)methyl-1-methyl-1H-1,2,3-triazol-5-yl]-5H-pyrido[3,2-b]indol-3-yl]propan-2-ol] | < 1500
[2H]C([2H])([2H])c1nnn(C)c1-c1cc2c(cc1Cl)c1ncc(C(C)(C)O)cc1n2C(c1ncccc1F)C1CCOCC1 (single isomer, unassigned) [Example 76, 2-{8-Chloro-5-[(3-fluoropyridin-2-yl)(oxan-4-yl)methyl]-7-[4-(^2H3)methyl-1-methyl-1H-1,2,3-triazol-5-yl]-5H-pyrido[3,2-b]indol-3-yl}propan-2-ol] | < 1500
Cc1noc(C)c1-c1ccc2c3ncc(C(C)(C)O)cc3n([C@H](c3ccccc3F)C3CCOCC3)c2c1 [Example 15, 2-[7-(Dimethyl-1,2-oxazol-4-yl)-5-[(S)-(2-fluorophenyl)(oxan-4-yl)methyl]-5H-pyrido[3,2-b]indol-3-yl]propan-2-ol] | < 5
[2H]C([2H])([2H])c1nnn(C)c1-c1cc2c(cc1F)c1ncc(C(C)(C)O)cc1n2C(C1=CCCOC1)c1ccccc1 (racemic) [Example 61, 2-{5-[5,6-dihydro-2H-pyran-3-yl(phenyl)methyl]-8-fluoro-7-[4-(^2H3)methyl-1-methyl-1H-1,2,3-triazol-5-yl]-5H-pyrido[3,2-b]indol-3-yl}propan-2-ol] | < 5
[2H]C([2H])([2H])c1nnn(C)c1-c1cc2c(cc1F)c1ncc(C(C)(C)O)cc1n2C(c1ccc(C)cn1)C1CCOCC1 (single isomer, unassigned) [Example 56, 2-{8-fluoro-7-[4-(^2H3)methyl-1-methyl-1H-1,2,3-triazol-5-yl]-5-[(5-methylpyridin-2-yl)(oxan-4-yl)methyl]-5H-pyrido[3,2-b]indol-3-yl}propan-2-ol] | < 5
[2H]C([2H])([2H])c1nnn(C)c1-c1cc2c(cc1F)c1ncc(C(C)(C)O)cc1n2C(CCC)c1ccc(F)cn1 (single isomer, unassigned) [Example 59, 2-{8-fluoro-5-[1-(5-fluoropyridin-2-yl)butyl]-7-[4-(^2H3)methyl-1-methyl-1H-1,2,3-triazol-5-yl]-5H-pyrido[3,2-b]indol-3-yl}propan-2-ol] | < 5
